Source: patent US20250171437A1 (Agios Pharmaceuticals,Inc., priority 2022, published 2025)

target: T1, human PAH with the R408W mutation (A375 R408W cells) (Homo sapiens, UniProt P00439, R408W); test: Cell Based Phenylalanine Flux Assay; conditions: A375 R408W cells; 24 hrs with compound, then 20 μM sepiapterin and 800 μM 13C9,15N-Phenylalanine for 4 hours; 13C-Tyrosine by LC-MS; average where tested multiple times
T1 construct: expressed in transfected cells
T1 sequence (P00439 1-452 R408W): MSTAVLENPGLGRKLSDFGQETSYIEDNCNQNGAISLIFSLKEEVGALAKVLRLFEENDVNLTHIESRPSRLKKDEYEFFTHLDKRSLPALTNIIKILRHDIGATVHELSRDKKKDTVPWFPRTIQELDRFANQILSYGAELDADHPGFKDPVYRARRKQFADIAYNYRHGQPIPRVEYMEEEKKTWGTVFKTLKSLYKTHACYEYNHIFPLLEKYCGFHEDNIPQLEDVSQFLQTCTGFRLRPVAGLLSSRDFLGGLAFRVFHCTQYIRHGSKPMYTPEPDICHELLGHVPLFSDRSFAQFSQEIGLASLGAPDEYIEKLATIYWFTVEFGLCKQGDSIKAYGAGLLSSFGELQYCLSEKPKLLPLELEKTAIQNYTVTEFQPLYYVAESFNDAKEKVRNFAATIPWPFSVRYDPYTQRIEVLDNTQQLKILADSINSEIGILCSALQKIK
Procedure, shortened: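 A375 cells stably expressing lentiviral human PAH R408W were treated with compounds (10-point 2-fold dilutions, 0.5% DMSO, duplicate) for 24 h at 37 °C. Then 20 μM sepiapterin and 800 μM 13C9,15N-Phe were added for 4 h; media 13C-Tyr was measured by LC-MS to give AC50.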

Cn1nc(C(F)F)cc1C(=O)N1CCc2[nH]cnc2[C@H]1c1nc2ccccc2o1 [Example 731, (S)-(4-(benzo[d]oxazol-2-yl)-6,7-dihydro-1H-imidazo[4,5-c]pyridin-5(4H)-yl)(3-(difluoromethyl)-1-methyl-1H-pyrazol-5-yl)methanone] and O=C(c1ccnn1C(F)F)N1CCc2[nH]cnc2[C@H]1c1nc2ccccc2o1 [Example 563, (S)-(4-(benzo[d]oxazol-2-yl)-6,7-dihydro-1H-imidazo[4,5-c]pyridin-5(4H)-yl)(1-(difluoromethyl)-1H-pyrazol-5-yl)methanone] cannot be ordered by AC50: no more than 500 nM for the first, no more than 500 nM for the second.

COc1cc(F)cc2nc([C@H]3c4nc[nH]c4CCN3C(=O)c3ocnc3C(F)F)oc12 [Example 717, (R)-(4-(difluoromethyl)oxazol-5-yl)(4-(5-fluoro-7-methoxybenzo[d]oxazol-2-yl)-6,7-dihydro-1H-imidazo[4,5-c]pyridin-5(4H)-yl)methanone] and O=C(c1ocnc1C(F)F)N1CCc2[nH]cnc2[C@@H]1c1nc2c(Cl)cccc2o1 [Example 438, [(4R)-4-(4-chloro-1,3-benzoxazol-2-yl)-1,4,6,7-tetrahydroimidazo[4,5-c]pyridin-5-yl]-[4-(difluoromethyl)oxazol-5-yl]methanone] cannot be ordered by AC50: 500 to 1000 nM for the first, no more than 500 nM for the second.

O=C(c1cnn2cc(N3CCOCC3)ccc12)N1CCc2[nH]cnc2[C@H]1c1nc2c(F)cccc2o1 [Example 504, (S)-(4-(4-fluorobenzo[d]oxazol-2-yl)-6,7-dihydro-1H-imidazo[4,5-c]pyridin-5(4H)-yl)(6-morpholinopyrazolo[1,5-a]pyridin-3-yl)methanone] and CN1CCN(c2ccc3c(C(=O)N4CCc5[nH]cnc5[C@H]4c4nc5c(F)cccc5o4)cnn3c2)CC1 [Example 475, (S)-(4-(4-fluorobenzo[d]oxazol-2-yl)-6,7-dihydro-1H-imidazo[4,5-c]pyridin-5(4H)-yl)(6-(4-methylpiperazin-1-yl)pyrazolo[1,5-a]pyridin-3-yl)methanone] cannot be ordered by AC50: 500 to 1000 nM for the first, no more than 500 nM for the second.

First: Cn1cc(-c2nnc(C(=O)N3CCc4[nH]cnc4[C@H]3c3nc4ccc(F)c(F)c4o3)o2)cn1 [Example 515, (S)-(4-(6,7-difluorobenzo[d]oxazol-2-yl)-6,7-dihydro-1H-imidazo[4,5-c]pyridin-5(4H)-yl)(5-(1-methyl-1H-pyrazol-4-yl)-1,3,4-oxadiazol-2-yl)methanone]
Second: Cn1cc(-c2nnc(C(=O)N3CCc4[nH]cnc4[C@@H]3c3nc4ccccc4o3)o2)cn1 [Example 582, (R)-(4-(benzo[d]oxazol-2-yl)-6,7-dihydro-1H-imidazo[4,5-c]pyridin-5(4H)-yl)(5-(1-methyl-1H-pyrazol-4-yl)-1,3,4-oxadiazol-2-yl)methanone]
The AC50 of the first is lower: 500 to 1000 nM for the first, 1000 to 5000 nM for the second.

First: FC(F)(F)c1nnc(N2Cc3[nH]cnc3[C@H]2c2nc3ccccc3o2)o1 [Example 946, (S)-2-(5-(5-(trifluoromethyl)-1,3,4-oxadiazol-2-yl)-1,4,5,6-tetrahydropyrrolo[3,4-d]imidazol-4-yl)benzo[d]oxazole]
Second: O=C(c1oc(-c2ccccn2)nc1C(F)(F)F)N1CCc2[nH]cnc2[C@@H]1c1nc2cc(F)ccc2o1 [Example 50, (R)-(4-(5-fluorobenzo[d]oxazol-2-yl)-6,7-dihydro-1H-imidazo[4,5-c]pyridin-5(4H)-yl)(2-(pyridin-2-yl)-4-(trifluoromethyl)oxazol-5-yl)methanone]
The AC50 of the first is higher: 1000 to 5000 nM for the first, no more than 500 nM for the second.

Cc1cccc2nc([C@H]3c4nc[nH]c4CCN3C(=O)c3nc(C(F)F)nn3C)oc12 [Example 614, (R)-(3-(difluoromethyl)-1-methyl-1H-1,2,4-triazol-5-yl)(4-(7-methylbenzo[d]oxazol-2-yl)-6,7-dihydro-1H-imidazo[4,5-c]pyridin-5(4H)-yl)methanone] and Cc1cccc2nc([C@H]3c4nc[nH]c4CCN3C(=O)c3ccnn3C)oc12 [Example 748, (R)-(1-methyl-1H-pyrazol-5-yl)(4-(7-methylbenzo[d]oxazol-2-yl)-6,7-dihydro-1H-imidazo[4,5-c]pyridin-5(4H)-yl)methanone] fall in the same range of AC50: 1000 to 5000 nM for the first, 1000 to 5000 nM for the second.

CC(C)(O)c1nc(C(F)F)c(C(=O)N2CCc3[nH]cnc3[C@@H]2c2nc3cc(C(F)(F)F)ccc3o2)o1 [Example 328, (R)-(4-(difluoromethyl)-2-(2-hydroxypropan-2-yl)oxazol-5-yl)(4-(5-(trifluoromethyl)benzo[d]oxazol-2-yl)-6,7-dihydro-1H-imidazo[4,5-c]pyridin-5(4H)-yl)methanone] and [2H]C([2H])([2H])OCc1nc(C(F)F)c(C(=O)N2CCc3[nH]cnc3[C@H]2c2nc3cc(F)ccc3o2)o1 [Example 155, (S)-(4-(difluoromethyl)-2-((methoxy-d3)methyl)oxazol-5-yl)(4-(5-fluorobenzo[d]oxazol-2-yl)-1,4,6,7-tetrahydro-5H-imidazo[4,5-c]pyridin-5-yl)methanone] cannot be ordered by AC50: no more than 500 nM for the first, no more than 500 nM for the second.

O=C(c1oc(-c2cnccn2)nc1C(F)F)N1CCc2[nH]cnc2[C@@H]1c1nc2cc(F)ccc2o1 [Example 528, (R)-(4-(difluoromethyl)-2-(pyrazin-2-yl)oxazol-5-yl)(4-(5-fluorobenzo[d]oxazol-2-yl)-6,7-dihydro-1H-imidazo[4,5-c]pyridin-5(4H)-yl)methanone] and Cc1nc(-c2ccccn2)oc1C(=O)N1CCc2[nH]cnc2[C@@H]1c1nc2cc(F)ccc2o1 [Example 32, (R)-(4-(5-fluorobenzo[d]oxazol-2-yl)-6,7-dihydro-1H-imidazo[4,5-c]pyridin-5(4H)-yl)(4-methyl-2-(pyridin-2-yl)oxazol-5-yl)methanone] fall in the same range of AC50: 1000 to 5000 nM for the first, 1000 to 5000 nM for the second.

Cc1ccc2oc([C@@H]3c4nc[nH]c4CCN3C(=O)c3ncc(Cl)s3)nc2c1 [Example 1, (S)-(5-chlorothiazol-2-yl)(4-(5-methylbenzo[d]oxazol-2-yl)-6,7-dihydro-1H-imidazo[4,5-c]pyridin-5(4H)-yl)methanone] and Cc1ccc2nc([C@H]3c4nc[nH]c4CCN3C(=O)c3ccnn3C(F)F)oc2c1 [Example 318, (R)-(1-(difluoromethyl)-1H-pyrazol-5-yl)(4-(6-methylbenzo[d]oxazol-2-yl)-6,7-dihydro-1H-imidazo[4,5-c]pyridin-5(4H)-yl)methanone] fall in the same range of AC50: 500 to 1000 nM for the first, 500 to 1000 nM for the second.

First: Cc1nc([C@H](C)O)oc1C(=O)N1CCc2[nH]cnc2[C@@H]1c1nc2cccc(F)c2o1 [Example 248, ((R)-4-(7-fluorobenzo[d]oxazol-2-yl)-6,7-dihydro-1H-imidazo[4,5-c]pyridin-5(4H)-yl)(2-((S)-1-hydroxyethyl)-4-methyloxazol-5-yl)methanone]
Second: CC(O)c1nc(Br)c(C(=O)N2CCc3[nH]cnc3[C@H]2c2nc3cc(F)ccc3o2)o1 (single isomer, unassigned) [Example 226]
The AC50 of the first is higher: 1000 to 5000 nM for the first, no more than 500 nM for the second.

First: COc1ccc(-c2nnc(C(=O)N3CCc4[nH]cnc4[C@H]3c3nc4cc(F)ccc4o3)o2)nc1 [Example 442, (S)-(4-(5-fluorobenzo[d]oxazol-2-yl)-6,7-dihydro-1H-imidazo[4,5-c]pyridin-5(4H)-yl)(5-(5-methoxypyridin-2-yl)-1,3,4-oxadiazol-2-yl)methanone]
Second: Cc1nc(C(C)(C)C#N)oc1C(=O)N1CCc2[nH]cnc2[C@@H]1c1nc2cc(F)ccc2o1 [Example 186, (R)-2-(5-(4-(5-fluorobenzo[d]oxazol-2-yl)-4,5,6,7-tetrahydro-1H-imidazo[4,5-c]pyridine-5-carbonyl)-4-methyloxazol-2-yl)-2-methylpropanenitrile]
The AC50 of the first is lower: 500 to 1000 nM for the first, 1000 to 5000 nM for the second.

Cn1ccc(-c2nc(C(F)F)c(C(=O)N3CCc4[nH]cnc4[C@@H]3c3nc4ccccc4o3)o2)n1 [Example 762, (R)-(4-(benzo[d]oxazol-2-yl)-6,7-dihydro-1H-imidazo[4,5-c]pyridin-5(4H)-yl)(4-(difluoromethyl)-2-(1-methyl-1H-pyrazol-3-yl)oxazol-5-yl)methanone] and O=C(c1ccnn1C1CC1)N1CCc2[nH]cnc2[C@@H]1c1nc2cccc(F)c2o1 [Example 728, (R)-(1-cyclopropyl-1H-pyrazol-5-yl)(4-(7-fluorobenzo[d]oxazol-2-yl)-6,7-dihydro-1H-imidazo[4,5-c]pyridin-5(4H)-yl)methanone] cannot be ordered by AC50: 1000 to 5000 nM for the first, no less than 5000 nM for the second.

O=C(c1nnc(-c2ncccc2F)o1)N1CCc2[nH]cnc2[C@H]1c1nc2c(F)ccc(F)c2o1 [Example 800, (S)-(4-(4,7-difluorobenzo[d]oxazol-2-yl)-6,7-dihydro-1H-imidazo[4,5-c]pyridin-5(4H)-yl)(5-(3-fluoropyridin-2-yl)-1,3,4-oxadiazol-2-yl)methanone] and O=C(c1cnn2cc(N3CCN(C4CC4)CC3)ccc12)N1CCc2[nH]cnc2[C@H]1c1nc2cc(F)ccc2o1 [Example 133, (S)-(6-(4-cyclopropylpiperazin-1-yl)pyrazolo[1,5-a]pyridin-3-yl)(4-(5-fluorobenzo[d]oxazol-2-yl)-6,7-dihydro-1H-imidazo[4,5-c]pyridin-5(4H)-yl)methanone] cannot be ordered by AC50: no more than 500 nM for the first, 500 to 1000 nM for the second.

same assay, conditions: A375 cells expressing R408W PAH; 24 hrs with compound, then 20 μM sepiapterin and 800 μM 13C9,15N-Phenylalanine for 4 hours; 13C-Tyrosine by LC-MS; average where tested multiple times

COc1ccc2oc(C3c4nc[nH]c4CCN3C(=O)c3cnn4cc(N5CCC(O)CC5)ccc34)nc2c1 (centres unmarked) and Cn1cc(-c2ncc(C(=O)N3CCc4[nH]cnc4C3c3nc4cc(F)ccc4o3)o2)cn1 (centres unmarked) cannot be ordered by AC50: no less than 5000 nM for the first, no less than 5000 nM for the second.

Work on CC(C)(O)c1cc(C(=O)N2CCc3[nH]cnc3C2c2nc3cc(F)ccc3o2)sn1 (centres unmarked) yielded an AC50 of no less than 5000 nM.
